The values that follow come from PMC7567097, “A nanoluciferase SARS-CoV-2 for rapid neutralization testing and screening of anti-infective drugs for COVID-19” (Nature Communications, 2020).

Data set [1] concerns SARS-CoV-2-Nluc. In words: microbe, parasite or virus in culture. The class given is cell-based.
Data set [2] is described as follows: in vitro. As to conditions: human.
The conditions of data set [3]: human exposures in the clinic, approved dosing schedules, ref [51]-[68], cited from earlier work; for Cmax: read-out: Exposure Cmax.
For data set [4] the following is noted: data from literature; ref [51]-[68]; cited from earlier work.
Data set [5] concerns A549-hACE2 cells.
Setting [6] is: Severe acute respiratory syndrome coronavirus 2, 48 h.
The mark [7] stands for this setting: Severe acute respiratory syndrome coronavirus 2, read-out: EC50 (µM) Replicate 1.
[8] abbreviates: Severe acute respiratory syndrome coronavirus 2, read-out: EC50 (µM) Replicate 2.
The mark [9] stands for this setting: read-out: EC50 (µM) Replicate 1.
Where [10] appears, read: read-out: EC50 (µM) Replicate 2.

Like-named read-outs stand apart in the source and are kept apart here. A value given as a limit tells only on which side of the number the result lay.

As to `CC(C)OC(=O)[C@H](C)N[P@](=O)(CO[C@H](C)Cn1cnc2c(N)ncnc21)Oc1ccccc1` [Tenofovir alafenamide (TAF), Tenofovir alafenamide], the EC50 in data set [1] (setting [6]), in data set [1] (setting [7]) and in data set [1] (setting [8]) was above 10 µM throughout. Besides, the CC50 in data set [2] (CC50), in data set [2] (CC50 (µM) Replicate 1) and in data set [2] (CC50 (µM) Replicate 2) was above 50 µM in each case. The maximum concentration (Cmax) in data set [3] was 0.4 µM. Besides, the Plasma protein binding in data set [4] was 80%.

As for `CC(C)[C@@]1(C(=O)N[C@H]2CC(=O)O[C@]2(O)CF)CC(c2nccc3ccccc23)=NO1` [Nivocasan (GS-9450), Nivocasan], the EC50 in data set [1] (read-out: EC50), in data set [1] (setting [9]) and in data set [1] (setting [10]) was above 10 µM each time. In data set [5], this compound gave a CC50 above 50 µM.

For the compound `Cc1cc(/C=C/C#N)cc(C)c1Nc1ccnc(Nc2ccc(C#N)cc2)n1` [Rilpivirine], the values for the EC50 in data set [1] (setting [6]), in data set [1] (setting [7]) and in data set [1] (setting [8]) were 7.8 ± 1.04 µM, 7.06 µM and 8.53 µM, respectively. Also, the CC50 in data set [2] (CC50) was determined as 14.6 ± 1.6 µM; in data set [2] (CC50 (µM) Replicate 1), 13.5 µM; in data set [2] (CC50 (µM) Replicate 2) it was 15.8 µM. Moreover, the “Exposure Cmin” value in data set [3] was 0.30 µM. For the same compound, in data set [3], the Cmax was 0.83 µM. Also, the Plasma protein binding in data set [4] is recorded as 99.7%.

Regarding `CC(C)CN(C[C@@H](O)[C@H](Cc1ccccc1)NC(=O)O[C@H]1CCOC1)S(=O)(=O)c1ccc(N)cc1` [Amprenavir], the EC50 in data set [1] (setting [6]), in data set [1] (setting [7]) and in data set [1] (setting [8]) was above 10 µM each time. Moreover, the CC50 in data set [2] (CC50), in data set [2] (CC50 (µM) Replicate 1) and in data set [2] (CC50 (µM) Replicate 2) was above 50 µM in each case. Further, in data set [4], the Plasma protein binding is 90%.

As for `Cc1c(O)cccc1C(=O)N[C@@H](CSc1ccccc1)[C@H](O)CN1C[C@H]2CCCC[C@H]2C[C@H]1C(=O)NC(C)(C)C` [Nelfinavir], in data set [1], the “Selectivity index (SI) = CC50/EC50” value came to 15.7. Besides, the EC50 in data set [1] (setting [6]) is 0.77 ± 0.32 µM; in data set [1] (setting [7]), 0.542 µM; in data set [1] (setting [8]) it was 0.993 µM; in data set [1] (Severe acute respiratory syndrome coronavirus 2, read-out: projected protein adjusted potency (paEC50)), around 30 µM. Further, the CC50 in data set [2] (CC50) is 12 ± 1.3 µM; in data set [2] (CC50 (µM) Replicate 1), 11.1 µM; in data set [2] (CC50 (µM) Replicate 2), 13 µM. The “Exposure Cmin” value in data set [3] is listed as 2.6 µM. In addition, in data set [3], the highest concentration (Cmax) was 8.3 µM. In addition, the Plasma protein binding in data set [4] was above 98%.

For the compound `O=C1Nc2ccc(Cl)cc2[C@@](C#CC2CC2)(C(F)(F)F)O1` [Efavirenz], in data set [1], the “Selectivity index (SI) = CC50/EC50” value is recorded as below 3.9. The EC50 is above 9.6 µM in data set [1] (setting [6]), 9.6 µM in data set [1] (setting [7]) and above 10 µM in data set [1] (setting [8]). Also, the values for the CC50 in data set [2] (CC50), in data set [2] (CC50 (µM) Replicate 1) and in data set [2] (CC50 (µM) Replicate 2) were 37.6 ± 10.7 µM, 45.1 µM and 30 µM, respectively. Besides, the “Exposure Cmin” value in data set [3] is 5.6 µM. Further, in data set [4], the Plasma protein binding is listed as 99.5–99.8%.

With `CC(C)(C)NC(=O)[C@@H]1C[C@@H]2CCCC[C@@H]2CN1C[C@@H](O)[C@H](Cc1ccccc1)NC(=O)[C@H](CC(N)=O)NC(=O)c1ccc2ccccc2n1` [Saquinavir], the “Selectivity index (SI) = CC50/EC50” value in data set [1] is recorded as 3.9. The figures for the EC50 in data set [1] (setting [6]), in data set [1] (setting [7]) and in data set [1] (setting [8]) were 8.95 ± 0.31 µM, 8.73 µM and 9.17 µM, respectively. For the same compound, the CC50 in data set [2] (CC50) was 35.1 ± 11.7 µM; in data set [2] (CC50 (µM) Replicate 1), 43.4 µM; in data set [2] (CC50 (µM) Replicate 2), 26.8 µM. Moreover, the “Exposure Cmin” value in data set [3] is 0.65 µM.

Regarding `Nc1nc(=O)n([C@@H]2CS[C@H](CO)O2)cc1F` [Emtricitabine (FTC), Emtricitabine], the EC50 in data set [1] (setting [6]), in data set [1] (setting [7]) and in data set [1] (setting [8]) was above 10 µM throughout. Besides, the CC50 in data set [2] (CC50), in data set [2] (CC50 (µM) Replicate 1) and in data set [2] (CC50 (µM) Replicate 2) was above 50 µM throughout. The Cmax in data set [3] is 7.9 µM. The Plasma protein binding in data set [4] was 4%.

On to `CCC[C@@]1(CCc2ccccc2)CC(O)=C([C@H](CC)c2cccc(NS(=O)(=O)c3ccc(C(F)(F)F)cn3)c2)C(=O)O1` [Tipranavir], for which, in data set [1], the “Selectivity index (SI) = CC50/EC50” value was found to be 3.3. Moreover, the values for the EC50 in data set [1] (setting [6]), in data set [1] (setting [7]) and in data set [1] (setting [8]) were 8.65 ± 0.16 µM, 8.53 µM and 8.76 µM, respectively. Besides, the CC50 was determined as 28.4 ± 0.5 µM in data set [2] (CC50), 28.8 µM in data set [2] (CC50 (µM) Replicate 1) and 28.1 µM in data set [2] (CC50 (µM) Replicate 2). Moreover, the “Exposure Cmin” value in data set [3] is 30.8 µM. Further, the Cmax in data set [3] is 130 µM. Also, the Plasma protein binding in data set [4] is given as 99.9%.

Turning to `C[C@@]1(O)[C@H](O)[C@@H](CO)O[C@H]1n1ccc2c(N)ncnc21` [MK-0608], the EC50 in data set [1] (read-out: EC50), in data set [1] (setting [9]) and in data set [1] (setting [10]) was above 10 µM each time. In addition, in data set [5], the CC50 was above 50 µM.

As for `O=C(NCc1c(F)cc(F)cc1F)c1cn2c(c(O)c1=O)C(=O)N1[C@H]3CC[C@H](C3)O[C@@H]1C2` [Bictegravirt], the EC50 in data set [1] (setting [9]) and in data set [1] (setting [10]) was above 10 µM in each case. This compound returned a CC50 in data set [5] above 50 µM.

Take `C=CC(=O)N1CCC[C@@H](n2nc(-c3ccc(Oc4ccccc4)cc3)c3c(N)ncnc32)C1` [Ibrutinibj]: the EC50 in data set [1] (setting [9]) and in data set [1] (setting [10]) was above 10 µM throughout. In data set [5], this compound showed a CC50 above 50 µM.

Regarding `O=C(NCc1c(F)cc(F)cc1F)c1cn2c(c(O)c1=O)C(=O)N1[C@H]3CC[C@H](C3)O[C@@H]1C2` [Bictegravir], the EC50 in data set [1] (setting [6]) was above 10 µM. In data set [2] (CC50), this compound returned a CC50 above 50 µM. Besides, the Plasma protein binding in data set [4] is above 99%.

Turning to `Cc1cccc(C)c1OCC(=O)N[C@@H](Cc1ccccc1)[C@@H](O)C[C@H](Cc1ccccc1)NC(=O)[C@H](C(C)C)N1CCCNC1=O` [Lopinavir], the figures for the EC50 in data set [1] (setting [6]), in data set [1] (setting [7]) and in data set [1] (setting [8]) were 9 ± 0.42 µM, 9.3 µM and 8.7 µM, respectively. Also, the figures for the CC50 in data set [2] (CC50), in data set [2] (CC50 (µM) Replicate 1) and in data set [2] (CC50 (µM) Replicate 2) were 31.5 ± 2.5 µM, 29.8 µM and 33.3 µM, respectively. For the same compound, the Plasma protein binding in data set [4] is reported as 98–99%.

In the case of `COC(=O)N[C@H](C(=O)N[C@@H](Cc1ccccc1)[C@@H](O)CN(Cc1ccc(-c2ccccn2)cc1)NC(=O)[C@@H](NC(=O)OC)C(C)(C)C)C(C)(C)C` [Atazanavir], the EC50 in data set [1] (setting [6]), in data set [1] (setting [7]) and in data set [1] (setting [8]) was above 10 µM in each case. For the same compound, the CC50 in data set [2] (CC50), in data set [2] (CC50 (µM) Replicate 1) and in data set [2] (CC50 (µM) Replicate 2) was above 50 µM in each case.
